Results from ChEMBL document CHEMBL5338706, “Discovery of a potent and selective proteolysis targeting chimera (PROTAC) degrader of NSD3 histone methyltransferase” (Eur J Med Chem, 2022).
Active and inactive are the calls of the source. The rule behind the calls is not given here.

How the values were obtained:
[1] = target: Histone-lysine N-methyltransferase, H3 lysine-36 specific (Homo sapiens) (UniProt Q96L73); assay: Induction of NSD1 degradation in human NCI-H1703 cells at 3 to […] incubated for 72 hrs by Western blot analysis; format: cell-based; conditions: dose 3-7.5 µM
Sequence of Histone-lysine N-methyltransferase, H3 lysine-36 specific (Homo sapiens) (Q96L73 whole entry): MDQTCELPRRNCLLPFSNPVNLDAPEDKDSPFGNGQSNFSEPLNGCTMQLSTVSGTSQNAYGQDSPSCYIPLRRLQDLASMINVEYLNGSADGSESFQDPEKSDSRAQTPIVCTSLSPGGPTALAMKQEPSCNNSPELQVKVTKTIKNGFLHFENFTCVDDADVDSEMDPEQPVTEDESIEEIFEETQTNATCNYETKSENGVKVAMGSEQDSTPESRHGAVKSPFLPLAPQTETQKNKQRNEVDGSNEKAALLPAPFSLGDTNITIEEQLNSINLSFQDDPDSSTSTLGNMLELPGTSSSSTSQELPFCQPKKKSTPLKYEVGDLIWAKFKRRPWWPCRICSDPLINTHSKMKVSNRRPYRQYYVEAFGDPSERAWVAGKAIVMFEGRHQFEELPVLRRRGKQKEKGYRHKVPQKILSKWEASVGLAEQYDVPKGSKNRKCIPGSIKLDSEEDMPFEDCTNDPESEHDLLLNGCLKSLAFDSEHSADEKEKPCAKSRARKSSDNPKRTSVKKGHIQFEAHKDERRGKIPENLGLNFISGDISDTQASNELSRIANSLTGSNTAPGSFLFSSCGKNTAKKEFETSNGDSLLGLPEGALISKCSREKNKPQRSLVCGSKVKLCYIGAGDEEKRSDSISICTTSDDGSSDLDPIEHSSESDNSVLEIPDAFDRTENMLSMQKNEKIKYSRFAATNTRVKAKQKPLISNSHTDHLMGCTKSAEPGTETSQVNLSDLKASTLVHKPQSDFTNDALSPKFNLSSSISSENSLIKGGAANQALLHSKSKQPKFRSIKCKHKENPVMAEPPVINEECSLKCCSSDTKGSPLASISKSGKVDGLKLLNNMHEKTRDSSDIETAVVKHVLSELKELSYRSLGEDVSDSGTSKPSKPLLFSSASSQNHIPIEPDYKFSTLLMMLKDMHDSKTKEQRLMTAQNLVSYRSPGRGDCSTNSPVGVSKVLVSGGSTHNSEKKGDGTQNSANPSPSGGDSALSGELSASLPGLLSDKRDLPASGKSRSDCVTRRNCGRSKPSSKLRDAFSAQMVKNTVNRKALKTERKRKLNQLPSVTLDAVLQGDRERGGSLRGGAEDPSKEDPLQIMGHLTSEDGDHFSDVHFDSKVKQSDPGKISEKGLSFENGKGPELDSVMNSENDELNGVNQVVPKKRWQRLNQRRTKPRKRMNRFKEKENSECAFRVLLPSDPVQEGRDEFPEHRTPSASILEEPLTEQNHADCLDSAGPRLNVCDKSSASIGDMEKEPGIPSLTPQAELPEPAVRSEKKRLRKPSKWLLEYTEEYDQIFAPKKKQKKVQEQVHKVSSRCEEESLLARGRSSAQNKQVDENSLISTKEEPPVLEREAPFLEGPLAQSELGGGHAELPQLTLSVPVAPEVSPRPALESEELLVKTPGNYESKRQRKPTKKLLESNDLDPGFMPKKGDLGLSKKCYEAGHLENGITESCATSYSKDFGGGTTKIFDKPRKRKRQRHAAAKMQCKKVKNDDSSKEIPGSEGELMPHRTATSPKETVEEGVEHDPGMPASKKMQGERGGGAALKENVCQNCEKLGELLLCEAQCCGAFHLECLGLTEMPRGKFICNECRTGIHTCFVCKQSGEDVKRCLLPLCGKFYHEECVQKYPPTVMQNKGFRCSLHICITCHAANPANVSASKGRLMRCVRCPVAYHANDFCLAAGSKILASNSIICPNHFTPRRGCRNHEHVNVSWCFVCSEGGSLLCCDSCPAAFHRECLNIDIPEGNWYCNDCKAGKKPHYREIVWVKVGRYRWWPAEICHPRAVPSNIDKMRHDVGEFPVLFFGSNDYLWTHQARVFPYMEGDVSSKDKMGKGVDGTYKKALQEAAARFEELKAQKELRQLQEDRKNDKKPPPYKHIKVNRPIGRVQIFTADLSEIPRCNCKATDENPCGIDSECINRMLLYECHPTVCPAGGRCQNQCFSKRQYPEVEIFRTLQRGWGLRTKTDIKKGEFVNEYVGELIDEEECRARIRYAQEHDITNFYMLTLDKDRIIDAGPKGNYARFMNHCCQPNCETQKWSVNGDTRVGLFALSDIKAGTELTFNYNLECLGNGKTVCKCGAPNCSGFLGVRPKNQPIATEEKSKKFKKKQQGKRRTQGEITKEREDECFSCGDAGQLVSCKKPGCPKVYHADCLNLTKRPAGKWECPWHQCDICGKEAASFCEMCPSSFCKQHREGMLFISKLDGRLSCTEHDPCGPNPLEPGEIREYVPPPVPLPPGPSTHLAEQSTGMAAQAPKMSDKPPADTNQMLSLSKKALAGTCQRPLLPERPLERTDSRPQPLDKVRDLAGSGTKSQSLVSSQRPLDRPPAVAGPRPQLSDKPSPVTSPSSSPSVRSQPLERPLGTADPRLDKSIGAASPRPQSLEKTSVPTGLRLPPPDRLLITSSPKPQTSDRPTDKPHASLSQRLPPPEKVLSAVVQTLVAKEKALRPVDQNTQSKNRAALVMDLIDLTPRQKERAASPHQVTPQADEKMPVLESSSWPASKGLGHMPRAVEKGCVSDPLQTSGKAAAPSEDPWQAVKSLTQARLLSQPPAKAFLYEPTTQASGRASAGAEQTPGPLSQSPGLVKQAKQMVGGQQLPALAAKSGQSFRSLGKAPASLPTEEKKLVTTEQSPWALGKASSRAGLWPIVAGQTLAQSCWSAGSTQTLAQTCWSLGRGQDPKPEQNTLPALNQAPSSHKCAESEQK

[2] = Downregulation of NSD3 level in human NCI-H520 cells at 5 uM by measuring fold change by Western blot analysis relative to control; format: functional
[3] = target: T1, Histone-lysine N-methyltransferase NSD3 (Homo sapiens) (UniProt Q9BZ95); assay: Induction of NSD3 degradation in human NCI-H1703 cells at 0.001 to 10 uM by Western blot analysis; format: cell-based; conditions: dose 0.001-10 µM, time <= 72.0 hrs, TDE = time-dependent effect
T1 sequence (whole entry): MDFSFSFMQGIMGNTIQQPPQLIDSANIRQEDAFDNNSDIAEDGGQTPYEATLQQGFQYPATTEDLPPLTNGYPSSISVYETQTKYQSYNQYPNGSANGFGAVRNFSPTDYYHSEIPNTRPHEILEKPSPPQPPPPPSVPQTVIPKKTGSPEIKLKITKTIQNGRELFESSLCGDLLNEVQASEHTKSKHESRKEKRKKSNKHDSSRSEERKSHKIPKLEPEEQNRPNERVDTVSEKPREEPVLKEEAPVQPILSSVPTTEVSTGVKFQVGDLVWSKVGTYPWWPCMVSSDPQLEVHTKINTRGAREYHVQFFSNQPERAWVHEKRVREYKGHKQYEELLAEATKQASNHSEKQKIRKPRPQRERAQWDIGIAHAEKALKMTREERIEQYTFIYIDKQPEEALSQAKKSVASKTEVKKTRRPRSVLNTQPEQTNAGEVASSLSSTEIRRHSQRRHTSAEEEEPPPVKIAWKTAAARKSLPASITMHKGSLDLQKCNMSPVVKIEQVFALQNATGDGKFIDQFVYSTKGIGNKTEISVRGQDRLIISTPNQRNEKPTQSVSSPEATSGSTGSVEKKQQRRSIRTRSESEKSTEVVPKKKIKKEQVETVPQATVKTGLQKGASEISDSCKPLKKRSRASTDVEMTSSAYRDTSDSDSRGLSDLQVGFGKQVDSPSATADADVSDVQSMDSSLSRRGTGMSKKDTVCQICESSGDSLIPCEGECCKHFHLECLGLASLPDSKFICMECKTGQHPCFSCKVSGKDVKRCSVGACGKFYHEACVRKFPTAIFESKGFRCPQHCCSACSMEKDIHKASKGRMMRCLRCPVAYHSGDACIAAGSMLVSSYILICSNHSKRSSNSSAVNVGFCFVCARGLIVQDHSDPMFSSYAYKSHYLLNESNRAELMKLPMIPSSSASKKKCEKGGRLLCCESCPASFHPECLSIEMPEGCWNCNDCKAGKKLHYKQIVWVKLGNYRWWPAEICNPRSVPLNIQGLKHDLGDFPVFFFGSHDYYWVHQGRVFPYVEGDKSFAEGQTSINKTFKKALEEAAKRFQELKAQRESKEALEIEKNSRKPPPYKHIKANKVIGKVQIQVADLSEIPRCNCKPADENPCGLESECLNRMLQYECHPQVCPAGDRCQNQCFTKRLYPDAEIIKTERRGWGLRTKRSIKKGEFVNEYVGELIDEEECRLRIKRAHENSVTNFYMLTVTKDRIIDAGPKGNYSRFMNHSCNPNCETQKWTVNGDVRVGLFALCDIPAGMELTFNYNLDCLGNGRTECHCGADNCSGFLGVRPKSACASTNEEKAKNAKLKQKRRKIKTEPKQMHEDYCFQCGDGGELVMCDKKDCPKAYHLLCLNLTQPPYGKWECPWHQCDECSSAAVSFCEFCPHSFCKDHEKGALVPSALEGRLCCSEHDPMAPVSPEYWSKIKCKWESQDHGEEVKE

NCI-H520 = assay: Induction of apoptosis in human NCI-H520 cells assessed as decrease in Bcl-XL protein expression at 5 to 10 uM by Western blot analysis; format: functional, cell-based; conditions: dose 5-10 µM
[4] = Downregulation of c-Myc level in human NCI-H520 cells at […] by measuring fold change by Western blot analysis relative to control; format: functional; conditions: dose 7.5 µM

## Cc1cc(CNCCCCCCCCCCC(=O)N[C@H](C(=O)N2C[C@H](O)C[C@H]2C(=O)N[C@@H](C)c2ccc(-c3scnc3C)cc2)C(C)(C)C)cc(C)c1-c1ncn(C)c1-c1ccnc2cc(F)ccc12
[1]
  Activity: inactive
[2]
  fold change (FC): 0.7
[3]
  Activity: Tde
NCI-H520
  Activity: Active
[4]
  fold change (FC): 0.78
